Assays:
Type in all cases: cell-based
[1] = tested on: MCF-7; assay: In vitro anti-tumour cell growth inhibition (method of Skehan et al.), MCF-7; conditions: MCF-7, breast cancer; amount which inhibits 50% of the cell growth
Protocol: (§1) Compounds 1, 2 and 3 were tested in vitro. together with 2 reference compounds used clinically (carboplatin and cisplatin), against MCF-7 and EVSA-T, two breast cancers, WiDr, a colon cancer, IGROV, an ovarian cancer, M19MEL, a melanoma, A498, a renal cancer, and H226, a non small cell lung cancer. The tests were carried out according to the method of Skehan et al, Journal of the National Cancer Institute, 1990; 82: 1107-1112.

[2] = tested on: EVSA-T; assay: In vitro anti-tumour cell growth inhibition (method of Skehan et al.), EVSA-T; conditions: breast cancer, amount which inhibits 50% of the cell growth
Protocol: as §1

[3] = tested on: WiDr; assay: In vitro anti-tumour cell growth inhibition (method of Skehan et al.), WiDr; conditions: colon cancer, amount which inhibits 50% of the cell growth
Protocol: as §1

[4] = tested on: IGROV; assay: In vitro anti-tumour cell growth inhibition (method of Skehan et al.), IGROV; conditions: ovarian cancer, amount which inhibits 50% of the cell growth
Protocol: as §1

[5] = tested on: M19MEL; assay: In vitro anti-tumour cell growth inhibition (method of Skehan et al.), M19MEL; conditions: melanoma, amount which inhibits 50% of the cell growth
Protocol: as §1

[6] = tested on: A498; assay: In vitro anti-tumour cell growth inhibition (method of Skehan et al.), A498; conditions: A498, renal cancer; amount which inhibits 50% of the cell growth
Protocol: as §1

[7] = tested on: H226; assay: In vitro anti-tumour cell growth inhibition (method of Skehan et al.), H226; conditions: H226, non small cell lung cancer; amount which inhibits 50% of the cell growth
Protocol: as §1

Row | Compound | ID50 [1] [µg/mL] | ID50 [2] [µg/mL] | ID50 [3] [µg/mL] | ID50 [4] [µg/mL] | ID50 [5] [µg/mL] | ID50 [6] [µg/mL] | ID50 [7] [µg/mL]
1 | N.N.O=C([O-])C1(C(=O)[O-])CCC1.[Pt+2] [Carboplatin, carboplatin, reference compound] | 10.5 | 4.5 | 3.5 | 2.4 | 5.5 | 18 | 25
2 | N.N.[Cl][Pt][Cl] [Cisplatin, cisplatin, reference compound] | 1.4 | 0.92 | 1.55 | 0.23 | 0.78 | 1.2 | 3.158
3 | CC1(C)OC(=O)CC1C(=O)[O-].CC1(C)OC(=O)CC1C(=O)[O-].CCC[CH2][Sn+2][CH2]CCC (centres unmarked) [Compound 1, Di-n-butyltin diterebate] | 0.027 | 0.025 | 0.134 | 0.018 | 0.061 | 0.061 | 0.104
4 | CC1(C)OC(=O)CC1C(=O)[O-].CCC[CH2][Sn+]([CH2]CCC)[CH2]CCC [Compound 2, tri-n-butyltin terebate] | 0.003 | <0.003 | 0.011 | 0.004 | 0.011 | 0.015 | 0.008
5 | CC1(C)OC(=O)CC1C(=O)[O-].c1cc[c]([Sn+]([c]2ccccc2)[c]2ccccc2)cc1 [Compound 3, triphenyltin terebate] | 0.017 | <0.003 | 0.017 | 0.019 | 0.042 | 0.042 | 0.039
